Results: the supplement of paper PMC10307832

How the values were obtained:
Experiment in all cases: relative viability (nuclei count vs DMSO), 5 days (fraction); higher = more cells survive
[1] = compound: C1COCCN1C2=NC(=NC3=C2OC4=C3C=CC=N4)C5=CC(=CC=C5)NC(=O)C6=CN=C(C=C6)N + CS(=O)(=O)CCNCc1ccc(-c2ccc3ncnc(Nc4ccc(OCc5cccc(F)c5)c(Cl)c4)c3c2)o1 [Lapatinib] (partner 2 µM)
Summary of the method: (§1)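 Relative viability is defined as nuclei in treated wells over nuclei in vehicle wells. Duplicate plates were run and medians reported. Lung cancer cell lines in 1536-well plates were dosed by pin tool one day after seeding, with one drug or with a fixed anchor-drug dose plus five library-drug doses (not always all listed) in √10 steps, and nuclei were counted after 5 days.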

SGI-1776 + Trametinib = compound: CN1CCC(CNc2ccc3ncc(-c4cccc(OC(F)(F)F)c4)n3n2)CC1 [SGI-1776] + CC(=O)Nc1cccc(-n2c(=O)n(C3CC3)c(=O)c3c(Nc4ccc(I)cc4F)n(C)c(=O)c(C)c32)c1 [Trametinib] (partner 0.02 µM)
Summary of the method: as §1

SGI-1776 + Lapatinib = compound: CN1CCC(CNc2ccc3ncc(-c4cccc(OC(F)(F)F)c4)n3n2)CC1 [SGI-1776] + CS(=O)(=O)CCNCc1ccc(-c2ccc3ncnc(Nc4ccc(OCc5cccc(F)c5)c(Cl)c4)c3c2)o1 [Lapatinib] (partner 2 µM)
Summary of the method: as §1

SGI-1776 + Dasatinib = compound: CN1CCC(CNc2ccc3ncc(-c4cccc(OC(F)(F)F)c4)n3n2)CC1 [SGI-1776] + Cc1nc(Nc2ncc(C(=O)Nc3c(C)cccc3Cl)s2)cc(N2CCN(CCO)CC2)n1 [Dasatinib] (partner 0.075 µM)
Summary of the method: as §1

| Cell Line | relative viability ([1]; first compound 0.02 µM) | relative viability ([1]; first compound 0.06325 µM) | relative viability ([1]; first compound 0.2 µM) | relative viability ([1]; first compound 0.6325 µM) | relative viability ([1]; first compound 2 µM) | relative viability (SGI-1776 + Trametinib; first compound 0.08 µM) | relative viability (SGI-1776 + Trametinib; first compound 0.8 µM) | relative viability (SGI-1776 + Trametinib; first compound 2.53 µM) | relative viability (SGI-1776 + Trametinib; first compound 8 µM) | relative viability (SGI-1776 + Lapatinib; first compound 0.08 µM) | relative viability (SGI-1776 + Lapatinib; first compound 0.8 µM) | relative viability (SGI-1776 + Lapatinib; first compound 2.53 µM) | relative viability (SGI-1776 + Lapatinib; first compound 8 µM) | relative viability (SGI-1776 + Dasatinib; first compound 0.08 µM) | relative viability (SGI-1776 + Dasatinib; first compound 0.8 µM) | relative viability (SGI-1776 + Dasatinib; first compound 2.53 µM) | relative viability (SGI-1776 + Dasatinib; first compound 8 µM) |
| --- | --- | --- | --- | --- | --- | --- | --- | --- | --- | --- | --- | --- | --- | --- | --- | --- | --- |
| COR-L 105 | 0.391 | 0.318 | 0.34 | 0.346 | 0.289 | 0.504 | 0.388 | 0.452 | 0.41 | 0.332 | 0.394 | 0.388 | 0.244 | 0.343 | 0.323 | 0.284 | 0.254 |
| NCI-H2405 | 0.983 | 1.05 | 1.04 | 1.02 | 0.902 | 0.679 | 0.595 | 0.568 | 0.398 | 0.994 | 1.14 | 1.19 | 0.728 | 0.225 | 0.195 | 0.178 | 0.166 |
| NCI-H2228 | 1.1 | 1.2 | 0.89 | 1.06 | 0.604 | 0.591 | 0.487 | 0.52 | 0.35 | 0.816 | 1.21 | 0.927 | 0.415 | 0.581 | 0.665 | 0.416 | 0.27 |
| PC-14 | 0.308 | 0.391 | 0.307 | 0.283 | 0.249 | 0.796 | 0.582 | 0.384 | 0.0529 | 0.337 | 0.31 | 0.261 | 0.209 | 0.267 | 0.256 | 0.0958 | 0.0261 |
| IA-LM | 0.848 | 0.67 | 0.621 | 0.588 | 0.276 | – | – | – | – | 0.923 | 0.726 | – | 0.72 | – | – | – | – |
| A549 | 1.07 | 0.925 | 0.911 | 0.921 | 0.468 | – | – | – | – | 0.965 | 0.993 | 0.958 | 0.652 | – | – | – | – |
| NCI-H2342 | – | – | – | – | – | 0.891 | 0.779 | 0.809 | 0.769 | – | – | – | – | 0.364 | 0.326 | 0.289 | 0.301 |
| NCI-H1623 | – | – | – | – | – | – | – | – | – | – | – | – | – | 0.658 | 0.608 | 0.559 | 0.538 |
| SW 1573 | 1.2 | 1.13 | 0.932 | 1.1 | 0.896 | 0.525 | 0.444 | 0.463 | 0.305 | 1.29 | 1.09 | 1.15 | 1.06 | 0.457 | 0.456 | 0.457 | 0.295 |
| NCI-H2087 | 1.11 | 1.09 | 1.07 | 0.997 | 0.807 | 0.151 | 0.164 | 0.16 | 0.17 | 1.1 | 1.03 | 1.09 | 1.13 | 0.782 | 1.09 | 0.826 | 0.595 |
| NCI-H520 | 0.874 | 1.03 | 0.897 | 0.852 | 0.441 | 0.773 | 0.816 | 0.686 | 0.544 | 1.05 | 0.91 | 0.756 | 0.628 | 0.279 | 0.221 | 0.153 | 0.131 |
